Reference: patent US20220273751A1, “GPCR HETEROMER INHIBITORS AND USES THEREOF” (GPCR THERAPEUTICS, INC., priority 2019, published 2022)
Each block holds one molecule with its values, some of them ahead of it. Where a SMILES comes first, the peptide text is derived from it. Bridges are numbered along the chain shown (N, C = ends). [ ]: non-standard residue; d: D form. The star is where a group is joined. 2Nal = N[C@@H](Cc1ccc2ccccc2c1)C(=O)O; Lys(iPr) = CC(C)NCCCC[C@H](N)C(=O)O; Benzoyl(4-F) = O=C(c1ccc(F)cc1)*; Cit = NC(=O)NCCC[C@H](N)C(=O)O

Assays:
ERK1/2 [1] = assay: Western blot of phospho-ERK1/2, MDA-MB-231 cell lines; type: cell-based, human; conditions: for ERK1/2 activation, single agonist: MDA-MB-231 parent, MDA-MB-231-CXCR4 and MDA-MB-231-CXCR4-ADRB2 cells, data not shown
Experimental: MDA-MB-231 cells and A549 cells, expressing Rluc-luc2P or CXCR4, or containing CXCR4-ADRB2 heteromer, were seeded in 6 well plates at a density of 5×10^5 cells per well. […] Thereafter, each of the sets of cells were harvested and performed western blotting analysis.
Cells were seeded in 6 well plates at a density of 5×10^5 cells per well. […] Thereafter, the cells were harvested using NP-40 lysis buffer (Thermo Fisher Scientific, #FNN0021) supplemented with phosphatase inhibitor cocktail (Roche, #4906845001) and protease inhibitor cocktail (Thermo Fisher Scientific, #A32953). Proteins of cell lysates concentrations were determined by the Bio-Rad protein assay (Bio-Rad, #5000006). 20 μg of protein samples were subjected to reducing SDS-PAGE and transferred to PVDF (Polyvinylidene difluoride) using dry transfer system (Thermo Fisher Scientific, #IB21001). The membranes were blocked with 5% skim milk (BD Difco, #232100) in Tris-Buffered Saline with 1% Tween-twenty for 1 hour and incubated with phospho-ERK1/2 Thr202/Tyr204 (Cell Signaling Technology, #4370) and total-ERK1/2 (Cell Signaling Technology, #4695) antibodies. Antigen-antibody complexes were detected by incubating with horseradish peroxidase coupled secondary antibodies (Cell Signaling Technology) followed by SuperSignal West Femto Maximum Sensitivity Substrate (Thermo Fisher Scientific, #34096). Western blot images were captured and analyzed by iBright Western Blot Imaging System (Thermo Fisher Scientific, #A32752).

CXCR4 = target: T1, CXCR4 (Homo sapiens, UniProt P61073); assay: Calcium mobilization assay, MDA-MB-231 cells transduced with CXCR4 only; type: cell-based
T1 construct: expressed in transfected cells; host or cells: MDA-MB-231 (adenoviral transduction)
T1 sequence (P61073 whole entry): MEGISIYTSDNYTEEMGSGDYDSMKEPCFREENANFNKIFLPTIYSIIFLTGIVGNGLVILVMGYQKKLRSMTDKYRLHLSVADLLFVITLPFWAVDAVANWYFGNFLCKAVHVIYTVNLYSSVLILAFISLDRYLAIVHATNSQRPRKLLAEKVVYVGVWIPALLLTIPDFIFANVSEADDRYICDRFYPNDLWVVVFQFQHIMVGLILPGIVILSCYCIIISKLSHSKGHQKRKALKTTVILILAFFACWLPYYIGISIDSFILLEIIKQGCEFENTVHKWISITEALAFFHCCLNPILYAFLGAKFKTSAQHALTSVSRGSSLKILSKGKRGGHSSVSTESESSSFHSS

CXCR4-ADRB2 heteromer [2] = target: T2, CXCR4-ADRB2 heteromer (Homo sapiens, UniProt P07550+P61073); assay: Calcium mobilization assay, HL-60 cells endogenously expressing CXCR4 and ADRB2; type: cell-based; conditions: for decrease of IC50 of Ca2+ response upon co-treatment of carvedilol, HL-60: Carvedilol 10 μM
ADRB2 = target: T3, ADRB2 (Homo sapiens, UniProt P07550); assay: Calcium mobilization assay, MDA-MB-231 cells transduced with ADRB2 only; type: cell-based; conditions: FIG. 5B; CXCL12 15 nM, salmeterol 100 nM
T3 construct: expressed in transfected cells; host or cells: MDA-MB-231 (adenoviral transduction)

CXCR4-ADRB2 heteromer [3] = target: T2, CXCR4-ADRB2 heteromer; assay: Calcium mobilization assay, U937 cells endogenously expressing CXCR4 and ADRB2; type: cell-based
CXCR4-ADRB2 heteromer [4] = target: T2, CXCR4-ADRB2 heteromer; assay: Internalization inhibition assay, CXCR4-GFP U-2 OS cells transduced with ADRB2; conditions: FIG. 8; CXCL12 20 nM or antagonist 10 μM; 20 minutes
A549-CXCR4-ADRB2 cells [5] = assay: Proliferation assay (Prestoblue), A549-CXCR4-ADRB2 cells; conditions: serum free, 72 hr; for block of CXCL12 effect on cell proliferation: FIGS. 18A-18E, 10 μM (AMD070 1 μM)
CXCR4-ADRB2 heteromer [6] = target: T2, CXCR4-ADRB2 heteromer; assay: Calcium mobilization assay, MDA-MB-231 cells co-transduced with CXCR4 and ADRB2; type: cell-based; conditions: for IC50: IC50 of Ca2+ response; for IC50 / decrease of IC50 of Ca2+ response upon co-administration of Carvedilol: Table 4; for decrease of IC50 of Ca2+ response upon co-administration of Carvedilol: Carvedilol 600 nM
Experimental: The next day, the cells were co-transduced with 10 MOI of CXCR4 and 30 MOI of GPCRx. […] Calcium mobilizations were measured using FlexStation 3 Multi-Mode Microplate Reader. The results were normalized for base-line activity. Calcium mobilizations were quantified by calculating the area-under-the-curve (AUC) of each graph.
MDA-MB-231 cells were transduced with adenoviruses encoding CXCR4 only, or CXCR4 and ADRB2.
Calcium mobilization was measured using FlexStation3, and the resulting IC50 values of calcium response were calculated using GraphPad Prism software.
The next day, cells were co-transduced with 10 MOI of CXCR4 and 30 MOI of GPCRx. Adenoviruses encoding HA-VC were used to adjust the total amount of adenoviruses transduced. After 2 days, cells were treated with antagonist with indicated amounts and incubated with Cal 6 (FLIPR® Calcium 6 Assay Kit by Molecular Devices, Cat. R8191) for 2 hr. […] Calcium mobilization was measured using FlexStation 3 Multi-Mode Microplate Reader (Molecular Devices, Sunnyvale, Calif., USA). The results were normalized for base-line activity. […] Data represent three independent experiments (mean±SEM).

ERK1/2 [7] = assay: Western blot of phospho-ERK1/2, A549 cell lines; type: cell-based, human; conditions: A549-CXCR4-ADRB2 cells; 10 nM each; 10 minutes
[8] = system: MDA-MB-231-CXCR4-ADRB2 cells; assay: MDA-MB-231-CXCR4-ADRB2 orthotopic xenograft, tumor growth; type: in vivo, mouse; conditions: FIG. 22C; for suppression of tumor growth, single administration: once a day for 4 weeks
A549-CXCR4-ADRB2 cells [9] = assay: A549-CXCR4-ADRB2 xenograft, tumor growth; type: in vivo, mouse; conditions: 10 mpk; in only 2 doses
Experimental: The antitumor effect in mice transplanted with A549 cells containing CXCR4-ADRB2 by stably overexpressing both CXCR4 and ADRB2 (“A549-CXCR4-ADRB2 cells”) was evaluated using CXCR4 inhibitors currently under development or on the market. A549-CXCR4-ADRB2 cells (1×10^7 cell/head) were injected subcutaneously in nude mice. […]. The CXCR4 inhibitors were administered once a day for 4 weeks.
Five week-old, female Balb/c-nu/nu mice were obtained from Envigo (France) and maintained in specific pathogen-free animal facility. All protocols for animal use and euthanasia were approved by the Qubest Bio (South Korea) Animal Experimental Ethics Committee based on the Animal Protection Act. […] The tumor growth was monitored every third or fourth day by measuring the length (L) and width (W) of the tumor with an electronic caliper and calculating tumor volume in the basis of the following formula: Volume=0.5 LW^2.
For the antitumor efficacy test using CXCR4 inhibitors, A549-CXCR4-ADRB2 cell line overexpressing CXCR4 and ADRB2 in A549, lung cancer cell line was subcutaneously administered (1×10^7 cell in 100 μL PBS/head) to BALB/c-nu. […] The tumor growth was monitored every third or fourth day by measuring the length (L) and width (W) of the tumor: Volume=0.5 LW^2.

[10] = system: patient derived cells (PDCs) from glioblastoma; assay: Survival of patient derived cells (ATPlite); type: cell-based, human; conditions: PDC expressing CXCR4 and ADRB2; 7 days
Experimental: Single cell suspensions of resected and dissociated glioblastoma tissues from patients were prepared (provided by Samsung Seoul hospital in Seoul, Korea). These cells were cultured under conditions optimal for propagation and non-differentiation of normal neuronal stem cell. Media were composed serum free Neurobasal media supplemented with basic FGF and EGF.
The effects of GPCRx antagonist on the survival of patient derived cells (PDCs) were assessed using ATPlite (PerkinElmer, Cat. No. 6016739 reagent). ATPlite is an Adenosine Triphospate monitoring system based on firefly luciferase. This luminescence assay is the alternative to colorimetric, fluorometric and radioisotopic assays for the quantitative evaluation of proliferation and cytotoxicity of cultured mammalian cells. Cells were seeded in 384-well plate at 500 cells/well in 40 μL culture media. After overnight growth, the cells were cultured for 7 days in the presence of several dose of GPCRx antagonist or DMSO alone. After a 7-day incubation, 15 μL ATPlite was added into the each well and the plate were shaken for 5 minutes in an orbital shaker at 700 rpm. The luminescent signal was detected within 30 minutes at PerkinElmer TopCount detection instrument. The cell viability was calculated using the equation: Cell viability (%)=(OD of antagonist treatment/OD of DMSO only treatment)×100%.

- EC50 (CXCR4; read-out: EC50 concentration against CXCR4): ~15 nM
- calcium response, single agonist, cells overexpressing ADRB2 alone (ADRB2): did not induced calcium response
Molecule: CXCL12: C-X-C Motif Chemokine ligand 12, CXCR4 agonist
- ERK1/2 activation, single agonist (ERK1/2 [1]): induced activation of ERK1/2 after 10 minutes
- calcium response, single agonist, cells expressing CXCR4 (CXCR4; FIG. 5A, CXCL12 15 nM, salmeterol 100 nM): evoked intracellular calcium mobilization
- calcium response, single agonist, HL-60 (CXCR4-ADRB2 heteromer [2]; FIG. 26B, CXCL12 200 nM, formoterol 10 μM): evoked an intercellular calcium mobilization
- calcium response, single agonist, U937 (CXCR4-ADRB2 heteromer [3]; FIG. 26A, CXCL12 200 nM, formoterol 10 μM): evoked an intercellular calcium mobilization
- internalization of CXCR4-GFP with ADRB2, substance alone (CXCR4-ADRB2 heteromer [4]): induced internalization of CXCR4-GFP with ADRB2
- increase of cell proliferation rate (A549-CXCR4-ADRB2 cells [5]; CXCL12 100 nM): about 20%

- IC50 (CXCR4-ADRB2 heteromer [6]; CXCR4 + ADRB2 (+Carvedilol 600 nM), co-treated with Carvedilol 600 nM (its IC90)): 1.94 nM
- IC50 (CXCR4-ADRB2 heteromer [6]; CXCR4 + ADRB2 (−Carvedilol 600 nM), CXCR4 inhibitor only): 88.7 nM
- decrease of IC50 of Ca2+ response upon co-administration of Carvedilol (CXCR4-ADRB2 heteromer [6]): about 45.7 fold
- IC50 (CXCR4; Table 4, cells expressing CXCR4 alone, CXCR4 inhibitor only, read-out: IC50 of Ca2+ response, CXCR4): 579 ± 204 nM
Molecule: N=C(N)NCCC[C@H](NC(=O)[C@@H]1CSSC[C@H](NC(=O)[C@H](Cc2ccc3ccccc3c2)NC(=O)[C@H](CCCNC(=N)N)NC(=O)[C@H](CCCNC(=N)N)NC(=O)c2ccc(F)cc2)C(=O)N[C@@H](Cc2ccc(O)cc2)C(=O)N[C@@H](CCCNC(N)=O)C(=O)N[C@@H](CCCCN)C(=O)N[C@H](CCCCN)C(=O)N2CCC[C@H]2C(=O)N[C@@H](Cc2ccc(O)cc2)C(=O)N[C@@H](CCCNC(=N)N)C(=O)N[C@@H](CCCNC(N)=O)C(=O)N1)C(N)=O [BKT140] ({Benzoyl(4-F)}-RR[2Nal]CY[Cit]K[dK]PYR[Cit]CR-NH2; disulfide 4-13)
- block of CXCL12 effect on cell proliferation (A549-CXCR4-ADRB2 cells [5]): blocked the CXCL12 effect

Molecule: OCc1cc(C(O)CNCCCCCCOCCCCc2ccccc2)ccc1O (centres unmarked) [salmeterol, Salmeterol]
- ERK1/2 phosphorylation, co-stimulation with CXCL12 and salmeterol (ERK1/2 [7]): significantly activated
- ERK1/2 activation, co-stimulation with CXCL12 and salmeterol (ERK1/2 [1]; MDA-MB-231-CXCR4-ADRB2 cells, 10 nM each, 20 minutes): synergistically increased
- ERK1/2 activation, single agonist (ERK1/2 [1]): induced ERK activation after 20 minutes

- decrease of IC50 of Ca2+ response upon co-treatment of carvedilol, HL-60 (CXCR4-ADRB2 heteromer [2]): about 12.7 fold
Molecule: NCCCCN(Cc1nc2ccccc2[nH]1)[C@H]1CCCc2cccnc21 [AMD070]
- inhibition of tumor growth, co-administration with Carvedilol ([8]; AMD070 3 or 10 mg/kg with Carvedilol 30 mg/kg): effectively inhibited the growth of the tumor
- suppression of tumor growth, single administration [8]: limited suppression of tumor growth
- block of CXCL12 effect on cell proliferation (A549-CXCR4-ADRB2 cells [5]): blocked the CXCL12 effect

- decrease of IC50 of Ca2+ response upon co-administration of Carvedilol (CXCR4-ADRB2 heteromer [6]): about 10.5 fold
- decrease of IC50 of Ca2+ response upon co-treatment of carvedilol, HL-60 (CXCR4-ADRB2 heteromer [2]): about 4.4 fold
- decrease of IC50 of Ca2+ response upon co-treatment of carvedilol, U937 (CXCR4-ADRB2 heteromer [3]; Carvedilol 10 μM): about 6.4 fold
Molecule: c1cc(CN2CCCNCCNCCCNCC2)ccc1CN1CCCNCCNCCCNCC1 [AMD3100, plerixafor]
- suppression of enhanced calcium signaling, co-administration with carvedilol (CXCR4-ADRB2 heteromer [6]; FIG. 6, AMD3100 10 μM with carvedilol 10 μM): greater suppression of the calcium signaling
- block of CXCL12 effect on cell proliferation (A549-CXCR4-ADRB2 cells [5]): blocked the CXCL12 effect

Molecule: CC(C)NCCCC[C@H](NC(=O)[C@H]1CCC(=O)N[C@@H](Cc2ccccc2)C(=O)N[C@@H](Cc2ccc(O)cc2)C(=O)N[C@@H](CCCCNC(C)C)C(=O)N[C@H](CCCNC(=N)N)C(=O)N[C@@H](Cc2ccc3ccccc3c2)C(=O)NCC(=O)N1)C(N)=O [LY2510924] (FY[Lys(iPr)][dR][2Nal]G[dE][Lys(iPr)]-NH2; lactam N-7)
- death of mice (A549-CXCR4-ADRB2 cells [9]): 3 out of 10
- block of CXCL12 effect on cell proliferation (A549-CXCR4-ADRB2 cells [5]): blocked the CXCL12 effect

Molecule: COc1ccccc1OCCNCC(O)COc1cccc2[nH]c3ccccc3c12 (centres unmarked) [Carvedilol]
- suppression of tumor growth, single administration [8]: limited suppression of tumor growth
- IC50 [10]: 11700 nM
